This is an account of results in patent US10689383B2, “Optionally fused heterocyclyl-substituted derivatives of pyrimidine useful for the treatment of inflammatory, metabolic, oncologic and autoimmune diseases” (NUEVOLUTION A/S, priority 2014, dated 2020).

The target in test [1] is T1, human RORγt (Ligand Binding Domain) (Homo sapiens, UniProt P51449).
T1 construct: purchased Crelux (Planegg, Germany) batch no PC5032-1
T1 sequence (P51449 269-508 limits assumed): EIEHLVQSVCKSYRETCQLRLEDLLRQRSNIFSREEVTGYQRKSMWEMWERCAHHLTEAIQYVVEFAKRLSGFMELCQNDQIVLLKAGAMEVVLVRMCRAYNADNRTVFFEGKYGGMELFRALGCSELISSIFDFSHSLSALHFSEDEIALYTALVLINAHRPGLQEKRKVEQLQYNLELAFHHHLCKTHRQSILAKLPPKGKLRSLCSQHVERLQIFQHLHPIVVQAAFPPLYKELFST
Put plainly: Fluorescence Polarization (FP) Assay. The settings on record: Fluorescence Polarization (FP) Assay; values given as upper bounds of activity ranges; read-out: FP activity range. As to the method:
(§1) The activity of the compounds was evaluated using a Fluorescence Polarization (FP) Assay and, in most cases, a Th17 Assay and/or RORγ Reporter assay (also referred to as Gal4 assay). The FP assay is an in vitro assay monitoring binding within the ligand binding pocket. The RORγ and the Th17 assays are both cell-based assays monitoring functional activity of the compound assayed.
The total volume was 25 μl, in a black Perkin Elmer OptiPlate. As negative control, 1 μl DMSO was used. […] The probe is a fluorescently labeled (TAMRA) RORγt ligand identified by Nuevolution with a total molecular weight of 910 g/mole as shown in Graph A in FIG. 1.
(In general: In fluorescence polarisation assays a small probe gives low polarisation when free and higher when bound to something large.)

In test [2] the target is T2, yeast Gal4-DNA binding domain fused to the ligand binding domain of human RORγ (Homo sapiens, UniProt P51449).
T2 construct: host or cells: HEK293t
T2 sequence (P51449 269-508 limits assumed): T1 sequence (P51449 269-508 limits assumed)
Put plainly: RORγ Reporter Assay (Gal4). The class given is cell-based. The settings on record: values given as lower bounds of ranges; for Gal4 activity range @ 1 μM (% inhibition): RORγ Reporter Assay (Gal4) at 1 μM; for Gal4 activity range @ 0.1 μM (% inhibition): RORγ Reporter Assay (Gal4) at 0.1 μM. As to the method: as §1
Cell-based RORγ functional assays were performed using a commercially available assay product (INDIGO Biosciences, State College, Pa., USA; product # IB04001). The RORγ reporter cells are HEK293t cells transfected with one vector that provides high level constitutive expression of a hybrid protein comprised of the yeast Gal4-DNA binding domain fused to the ligand binding domain of human RORγ, and a second vector comprising the firefly luciferase cDNA functionally linked to the upstream activation sequence (UAS) of yeast Gal4. A suspension of RORγ Reporter Cells was prepared using the protocol and culture medium provided in the kit product, and 100 μl of the Reporter Cell suspension was then dispensed into wells of a white, collagen-treated, 96-well assay plate. Concentrated stocks of test compounds were prepared in DMSO, then further diluted using media provided in the kit to generate ‘2×-concentration’ treatment media. 100 μl of medium for each respective treatment concentration dispensed into triplicate assay wells, thereby combining with the reporter cells. All media formulations contained 10% charcoal stripped Fetal Bovine Serum, but are otherwise proprietary to INDIGO Biosciences. Final treatment concentrations for each test compound were 1,000 nM and 100 nM, each with 0.1% residual DMSO. Separate control treatments were media supplemented with vehicle only (0.1% DMSO) to determine the constitutive level of RORγ activity in the reporter cells, and the reference inverse-agonist ursolic acid (f.c. 6,000 nM to 8.2 nM in 3-fold decrements) to establish a positive control inverse-agonist dose response. Assay plates were placed in a 37° C., 5% CO2, 85% humidity incubator for 24 hour. Treatment media were then discarded, 100 μl of luciferase detection reagent was added to each well, and relative light units (RLUs) were quantified from each assay well using a plate reading luminometer. Values of average RLU+/−standard deviation were computed for all treatment sets, followed by the calculations of fold-reduction: [Average RLUVehicle/Average RLUTest Cmpd]. Percent-reduction of RORγ activity in response to respective test compound treatments was calculated: [100*(1−[Ave RLUTest Cmpd/Ave RLUVehicle)] where the theoretical minimum reduction (0% reduction) derives from Vehicle treatment only, no treatment compound.
For orientation: In a reporter assay the amount or activity of a reporter protein is the signal.

As to `NC(=O)Cc1ccc(CNc2ncnc(N3C[C@H](F)C[C@@H]3c3ccc(C(F)(F)F)cc3)c2F)cc1` (racemic) [Example 241, 2-[4-[[[5-fluoro-6-[(2R,4R)-4-fluoro-2-[4-(trifluoromethyl)phenyl]pyrrolidin-1-yl]pyrimidin-4-yl]amino]methyl]phenyl]acetamide AND 2-[4-[[[5-fluoro-6-[(2S,4S)-4-fluoro-2-[4-(trifluoromethyl)phenyl]pyrrolidin-1-yl]pyrimidin-4-yl]amino]methyl]phenyl]acetamide], the IC50 in test [1] is less than 1000 nM.

As for `NC(=O)Cc1ccc(CNc2ncnc(N3C[C@H](F)C[C@H]3c3ccc(C(F)(F)F)cc3)c2F)cc1` (racemic) [Example 242, 2-[4-[[[5-fluoro-6-[(2S,4R)-4-fluoro-2-[4-(trifluoromethyl)phenyl]pyrrolidin-1-yl]pyrimidin-4-yl]amino]methyl]phenyl]acetamide AND 2-[4-[[[5-fluoro-6-[(2R,4S)-4-fluoro-2-[4-(trifluoromethyl)phenyl]pyrrolidin-1-yl]pyrimidin-4-yl]amino]methyl]phenyl]acetamide], in test [1], the IC50 is less than 2000 nM.

With `CC(C)(C)C[C@@H](Nc1ncnc(N2CCC[C@@H]2c2ccc(C(F)(F)F)cc2)c1F)C(N)=O` (single isomer, unassigned) [Example 5, (2R)-2-[[5-fluoro-6-[(2R)-2-[4-(trifluoromethyl)phenyl]pyrrolidin-1-yl]pyrimidin-4-yl]amino]-4,4-dimethyl-pentanamide or (2R)-2-[[5-fluoro-6-[(2S)-2-[4-(trifluoromethyl)phenyl]pyrrolidin-1-yl]pyrimidin-4-yl]amino]-4,4-dimethyl-pentanamide], the IC50 in test [1] is less than 500 nM.

As to `CC(C)(C)CC(Nc1ncnc(N2CCCC2c2ccc3ncccc3c2)c1F)C(N)=O` (stereo in doubt) [Example 23, (2R)-2-[[5-fluoro-6-[2-(6-quinolyl)pyrrolidin-1-yl]pyrimidin-4-yl]amino]-4,4-dimethyl-pentanamide], the IC50 in test [1] was less than 500 nM.

In the case of `CC(C)(C)CC(Nc1ncnc(N2CCCC2c2ccc3c(c2)OCCO3)c1F)C(N)=O` (stereo in doubt) [Example 24, (2R)-2-[[6-[2-(2,3-dihydro-1,4-benzodioxin-6-yl)pyrrolidin-1-yl]-5-fluoro-pyrimidin-4-yl]amino]-4,4-dimethyl-pentanamide], the IC50 in test [1] was less than 500 nM.

Turning to `CCC(C(=O)NCc1ccoc1C(N)=O)n1ccc2c(N3CCCC3c3ccc(-c4ccccc4)cc3)ncnc21` (stereo not shown) [Example 4, 3-[[2-[4-[2-(4-phenylphenyl)pyrrolidin-1-yl]pyrrolo[2,3-d]pyrimidin-7-yl]butanoylamino]methyl]furan-2-carboxamide], the IC50 in test [1] is less than 500 nM.

Regarding `NC(=O)[C@@H](Cc1cc(F)c(F)cc1F)Nc1ncnc(N2CCCC2c2nc3ccccc3s2)c1F` (stereo partly drawn) [Example 9, (2R)-2-[[6-[2-(1,3-benzothiazo1-2-yl)pyrrolidin-1-yl]-5-fluoro-pyrimidin-4-yl]amino]-3-(2,4,5-trifluorophenyl)propanamide], the IC50 in test [1] was less than 500 nM.

In the case of `CC(C)(C)C[C@@H](Nc1ncnc(N2CCCC2c2ccc(Cl)cc2Cl)c1F)C(N)=O` (stereo partly drawn) [Example 11, (2R)-2-[[6-[2-(2,4-dichlorophenyl)pyrrolidin-1-yl]-5-fluoro-pyrimidin-4-yl]amino]-4,4-dimethyl-pentanamide], the IC50 in test [1] was less than 500 nM.

As for `NC(=O)Cc1ccc(COc2ncnc(N3CCCC3c3ccc(C(F)(F)F)nc3)c2F)cc1` (stereo not shown) [Example 84, 2-[4-[[5-fluoro-6-[2-[6-(trifluoromethyl)-3-pyridyl]pyrrolidin-1-yl]pyrimidin-4-yl]oxymethyl]phenyl]acetamide], the “Gal4 activity range @ 1 μM (% inhibition)” value in test [2] was greater than 20 % inhibition.

For `NC(=O)Cc1ncc(COc2ncnc(N3CCCC3c3ccc(C(F)(F)F)cc3)c2F)cn1` (stereo not shown) [Example 86, 2-[5-[[5-fluoro-6-[2-[4-(trifluoromethyl)phenyl]pyrrolidin-1-yl]pyrimidin-4-yl]oxymethyl]pyrimidin-2-yl]acetamide], the “Gal4 activity range @ 1 μM (% inhibition)” value in test [2] is on record as greater than 20 % inhibition.

With `NC(=O)Cc1ncc(CNc2ncnc(N3CCCC3c3ccc(C(F)(F)F)cc3)c2F)cn1` (stereo not shown) [Example 87, 2-[5-[[[5-fluoro-6-[2-[4-(trifluoromethyl)phenyl]pyrrolidin-1-yl]pyrimidin-4-yl]amino]methyl]pyrimidin-2-yl]acetamide], the “Gal4 activity range @ 1 μM (% inhibition)” value in test [2] was greater than 20 % inhibition.

For `Cc1ccc(CNc2ncnc(-n3nncc3-c3ccc(C(F)(F)F)cc3)c2F)cn1` [Example 96, 5-fluoro-N-[(6-methyl-3-pyridyl)methyl]-6-[5-[4-(trifluoromethyl)phenyl]triazol-1-yl]pyrimidin-4-amine], in test [2], the “Gal4 activity range @ 0.1 μM (% inhibition)” value is listed as greater than 0 % inhibition and the “Gal4 activity range @ 1 μM (% inhibition)” value is listed as greater than 20 % inhibition.

`COc1nc(C)ccc1CNc1ncnc(N2CCCC2c2ccc(C(F)(F)F)cc2)c1F` (stereo not shown) [Example 99, 5-fluoro-N-[(2-methoxy-6-methyl-3-pyridyl)methyl]-6-[2-[4-(trifluoromethyl)phenyl]pyrrolidin-1-yl]pyrimidin-4-amine]: in test [2], the “Gal4 activity range @ 0.1 μM (% inhibition)” value is on record as greater than 20 % inhibition and the “Gal4 activity range @ 1 μM (% inhibition)” value is on record as greater than 50 % inhibition.

Take `Cc1ccc(CNc2ncnc(N3CCCC3c3ccc(C(F)(F)F)cc3O)c2F)cn1` (stereo not shown) [Example 104, 2-[1-[5-fluoro-6-[(6-methyl-3-pyridyl)methylamino]pyrimidin-4-yl]pyrrolidin-2-yl]-5-(trifluoromethyl)pheno1]: in test [2], the “Gal4 activity range @ 0.1 μM (% inhibition)” value was greater than 0 % inhibition and the “Gal4 activity range @ 1 μM (% inhibition)” value is reported as greater than 20 % inhibition.

With `Cc1nc(CNc2ncnc(N3CCCC3c3ccc(C(F)(F)F)cc3)c2F)ccc1C(C)O` (stereo not shown) [Example 112, 1-[6-[[[5-fluoro-6-[2-[4-(trifluoromethyl)phenyl]pyrrolidin-1-yl]pyrimidin-4-yl]amino]methyl]-2-methyl-3-pyridyl]ethanol], in test [2], the “Gal4 activity range @ 0.1 μM (% inhibition)” value is reported as greater than 0 % inhibition and the “Gal4 activity range @ 1 μM (% inhibition)” value is recorded as greater than 20 % inhibition.

As for `O=C(O)Cc1ccc(CNc2ncnc(N3CCC[C@@H]3c3ccc(C(F)(F)F)cc3)c2F)cc1` [Example 117, 2-[4-[[[5-fluoro-6-[(2R)-2-[4-(trifluoromethyl)phenyl]pyrrolidin-1-yl]pyrimidin-4-yl]amino]methyl]phenyl]acetic acid], the “Gal4 activity range @ 0.1 μM (% inhibition)” value in test [2] is greater than 50 % inhibition.

Take `O=C(c1ccncc1)N1CCC(Nc2ncnc(N3CCCC3c3ccc(C(F)(F)F)cc3)c2F)C1` (stereo not shown) [Example 121, [3-[[5-fluoro-6-[2-[4-(trifluoromethyl)phenyl]pyrrolidin-1-yl]pyrimidin-4-yl]amino]pyrrolidin-1-yl]-(4-pyridyl)methanone]: in test [2], the “Gal4 activity range @ 0.1 μM (% inhibition)” value was greater than 20 % inhibition and the “Gal4 activity range @ 1 μM (% inhibition)” value was greater than 50 % inhibition.

As to `O=C1CCCN1Cc1ccc(CNc2ncnc(N3CCCC3c3ccc(C(F)(F)F)cc3)c2F)cc1` (stereo not shown) [Example 124, 1-[[4-[[[5-fluoro-6-[2-[4-(trifluoromethyl)phenyl]pyrrolidin-1-yl]pyrimidin-4-yl]amino]methyl]phenyl]methyl] pyrrolidin-2-one], the “Gal4 activity range @ 1 μM (% inhibition)” value in test [2] is recorded as greater than 20 % inhibition.

For the compound `NC(=O)Cc1ccc(CNc2ncnc(N3CCCC3c3ccccc3)c2F)cc1` (stereo not shown) [Example 279, 2-[4-[[[5-fluoro-6-(2-phenylpyrrolidin-1-yl)pyrimidin-4-yl]amino]methyl]phenyl]acetamide], in test [2], the “Gal4 activity range @ 0.1 μM (% inhibition)” value is on record as greater than 20 % inhibition and the “Gal4 activity range @ 1 μM (% inhibition)” value was greater than 50 % inhibition.
